Experimental data from US20080146555A1, “Uses of Kinase Inhibitors and Compositions Thereof” (GPC Biotech, Inc, priority 2004, published 2008).
Values joined by “and” are separate entries in the source; they are usually repeats but may differ in a detail not shown here. Equal entries are not always repeated. Structures can show the parent of a compound that is named as a salt. Where two headings read alike, the source gives them in different places.

What was measured:
1A9 = assay: SRB cytotoxicity, 1A9 parental cells; assay type: cell-based; settings: Homo sapiens, 72 h
Description: (§1) In these experiments, the P-glycoprotein expressing NCI-Adr resistant subline (Vickers et al., 1989. Mol Endocrinology 3 (1):157-164) was used. […] Briefly, cells were plated in 96 well dishes 24 hours prior to compound addition. Where noted, they were exposed to verapamil for 4 hours prior to compound addition and then throughout the treatment period (72 hours). The assay was terminated with the addition of cold TCA to a final concentration of 10% and the plates were incubated for one hour at 4° C. The plates were then washed 5 times with water and 100 μl of a Sulforhodamine B solution (4%) was added to each well. The plate was then incubated for 10 minutes at room temperature before removal of unbound dye by washing with 1% acetic acid.
The tubulin mutated, paclitaxel-resistant human ovarian carcinoma cell line 1A9-PTX10 and its parental paclitaxel-sensitive cell line 1A9 were derived from the A2780 human ovarian carcinoma cell line (J Biol Chem (1997) 272, 17118-17124).

Cdk4 = Cdk4 (Homo sapiens, UniProt P11802); assay: Cdk4 inhibition; assay type: biochemical
From the text: (§2) Further inhibition results for subject compounds of the invention against other CDKs and further kinases are shown in Table 5, Table II and described in Example 6.
(§3) Table 3, Table 4, Table 5 and Table II show the results obtained for inhibition of a broad range of such kinases for subject compounds of the invention.

A129 cp80 = assay: SRB cytotoxicity, cisplatin resistant cells; assay type: cell-based, human; settings: for IC50: Homo sapiens, 72 h, SRB
Cdk2 = Cdk2 (Homo sapiens, UniProt P24941); assay: Cdk2 inhibition; assay type: biochemical
From the text: as §2, §3

Fes = target: T1, Fes (Homo sapiens, UniProt P07332); assay: Fes kinase assay; assay type: biochemical
T1 construct: purchased Upstate 14-473
Description: • 1. 2.5× Reaction Buffer: 50 mM MOPS, pH 7.0, 2.5 mM EDTA. • 2. Poly(Glu4-Tyr) (4:1): Prepare a 1 mg/ml stock in sterile distilled water. Add 2.5 μl per assay point for a final concentration of 0.1 mg/ml. • 3. Enzyme Dilution Buffer (EDB): 20 mM MOPS, pH 7.0, 1 mM EDTA, 5% glycerol, 0.01% Brij-35, 0.1% β-mercaptoethanol, 1 mg/ml BSA. • 4. Fes/Fps, active: Dilute to 4-40 ng/μl with EDB. Use 2.5 μl per assay. • 5. Magnesium/ATP Cocktail (Catalog #20-113): 75 mM MgCl2 and 500 μM ATP in 20 mM MOPS, pH 7.2, 25 mM β-glycerol phosphate, 5 mM EGTA, 1 mM sodium orthovanadate, 1 mM dithiothreitol. • 6. [γ-^32P]ATP: Stock 1 mCi/100 μl (3000 Ci/mmol, obtained from PerkinElmer, Catalog #LU002A). Make 10 μl aliquots (100 μCi/vial). Before starting the assay, dilute the Magnesium/ATP Cocktail 1:1 with sterile, distilled water. Then dilute an aliquot of [γ-^32P]ATP to 1 μCi/μl with 90 μl of the diluted Magnesium/ATP Cocktail. Use 10 μl per assay point for a final ATP concentration of 100 μM per assay point.
• 1. Add 10 μl of 2.5× Reaction Buffer per assay. • 3. Add 2.5 μl of Fes/Fps, active (10-100 ng). • 4. Add 10 μl of the diluted [γ-^32P]ATP mixture. • 5. Incubate for 10 minutes at 30° C. • 6. Spot 20 μl onto the center of a 2 cm×2 cm […]. • 7. Wash the assay squares three times for 5 minutes with 0.75% phosphoric acid. • 8. Wash the assay squares once for 5 minutes with acetone. • 9. Transfer the assay squares to vials and add 5 ml scintillation cocktail. • 10. Read in scintillation counter. Compare cpm of enzyme samples to cpm of control samples.

[1] = test system: normal human fibroblast, IMR90; assay: Calcein AM viability assay, IMR90; assay type: cell-based; settings: IMR-90, text b600
Description: The potency of the subject kinase inhibitors, as measured by loss of cellular viability, was determined with the Calcein AM assay (Molecular Probes). Calcein AM is a substrate of intracellular esterases, which is cleaved only in viable cells to generate a fluorescent product that can be quantified with a fluorescent plate reader. The fluorescent signal is proportional to the number of viable cells, and thus loss of signal in response to the exposure of cells to the subject kinase inhibitors correlates with a loss of viability. This assay not only distinguishes cell cycle arrest, in which cells may still by viable, from loss of viability, and is thus well suited for the evaluation of the subject kinase inhibitors. A compound that is a potent cytotoxic agent may cause significant loss of cell viability in such an assay.
Cellular IC50's were determined in the human colorectal carcinoma cell line, HCT-116, and the normal human fibroblast, IMR90. Protein adjusted IC50's were also determined in HCT-116. Results of such viability assays are presented in Table 2 (HCT-116 (viability/protein adjusted) and IMR-90). IC50's (μM, non-protein adjusted) for the viability assay against HCT-116 cells are shown for further compounds of the invention in Table 4.
HCT-116 or IMR90 cells were recovered from sub-confluent plates by trypsinization and 1,000 or 4,000 cells, respectively, were plated in 24-well dishes and incubated overnight at 37° C., 5% CO2. HCT-116 cells were cultured in RPMI-1640, 10% FCS, and IMR90 cells were cultured in Minimum Essential Medium-alpha, 10% FCS. After overnight incubation to allow adherence, the media was aspirated from each well and replaced with media containing a test compound at a concentration from 0 to 250 nM, spanning a total of 7 doses. The plates were returned to the incubator and cultured for an additional 72 hours (3 days). […] After 72-hours incubation with the test compound, the cells were washed twice with 1×PBS, taking special care to remove all residual buffer.
A 5 μM Calcein AM solution was prepared by dissolving a 50 μg aliquot of Calcein (Molecular Probes catalog #C3100) in 50 μl DMSO. After the Calcein had completely dissolved (10 minutes at room temperature), it was diluted into 10 ml PBS. Calcein/PBS (0.5 ml) was added to each well. The plates were incubated for 75 minutes at 37° C. (protected from light) and the fluorescent signal was read on a fluorescent plate reader (excitation 485/20 and emission 530/25).

panel of Tyr kinases = assay: Kinase panel, Tyr kinases (average); assay type: biochemical; settings: average over panel; read-out: average IC50 among Tyr kinases
Cdk1 = Cdk1 (Homo sapiens, UniProt P06493); assay: Cdk1 inhibition; assay type: biochemical
From the text: as §2, §3

A129 = assay: SRB cytotoxicity, A129 parental cells; assay type: cell-based, human; settings: Homo sapiens, 72 h
Description: as §1
The parental non-mutated cell line A129 was used as a control.

Cdk3 = Cdk3 (Homo sapiens, UniProt Q00526); assay: Cdk3 inhibition; assay type: biochemical
From the text: as §2, §3

[2] = read-out: FES Inhibition (IC50)

T1 sequence (P07332 whole entry): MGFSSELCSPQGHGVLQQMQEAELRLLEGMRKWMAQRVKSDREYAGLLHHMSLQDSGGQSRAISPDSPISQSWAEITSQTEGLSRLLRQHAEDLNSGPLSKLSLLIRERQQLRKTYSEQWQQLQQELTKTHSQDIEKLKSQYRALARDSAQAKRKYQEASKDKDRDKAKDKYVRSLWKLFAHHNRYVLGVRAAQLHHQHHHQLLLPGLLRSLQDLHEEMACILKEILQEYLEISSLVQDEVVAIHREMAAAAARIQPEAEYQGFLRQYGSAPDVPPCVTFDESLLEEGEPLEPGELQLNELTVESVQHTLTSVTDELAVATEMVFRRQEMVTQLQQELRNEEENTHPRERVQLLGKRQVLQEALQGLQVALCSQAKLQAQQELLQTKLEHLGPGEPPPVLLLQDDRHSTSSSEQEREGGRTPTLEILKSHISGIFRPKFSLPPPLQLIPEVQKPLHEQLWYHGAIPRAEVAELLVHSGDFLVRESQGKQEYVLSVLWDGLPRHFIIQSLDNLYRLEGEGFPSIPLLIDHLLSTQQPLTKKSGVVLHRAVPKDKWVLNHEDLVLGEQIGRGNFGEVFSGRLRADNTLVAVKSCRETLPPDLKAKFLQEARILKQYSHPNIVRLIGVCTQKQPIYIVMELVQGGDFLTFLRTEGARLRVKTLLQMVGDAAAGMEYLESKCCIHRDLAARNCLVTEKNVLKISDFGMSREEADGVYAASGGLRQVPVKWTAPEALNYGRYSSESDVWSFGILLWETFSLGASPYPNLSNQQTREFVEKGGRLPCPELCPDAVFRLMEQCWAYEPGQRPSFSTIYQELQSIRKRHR
Sequence of Cdk1 (P06493 whole entry, species assumed): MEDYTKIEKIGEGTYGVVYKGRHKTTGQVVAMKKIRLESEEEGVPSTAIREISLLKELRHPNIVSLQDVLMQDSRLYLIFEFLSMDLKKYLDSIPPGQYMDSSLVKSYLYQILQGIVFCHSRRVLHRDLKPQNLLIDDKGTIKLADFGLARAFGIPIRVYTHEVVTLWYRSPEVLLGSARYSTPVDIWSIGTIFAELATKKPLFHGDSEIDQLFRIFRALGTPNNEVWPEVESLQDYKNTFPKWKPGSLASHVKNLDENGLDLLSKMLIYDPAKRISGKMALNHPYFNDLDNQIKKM
Sequence of Cdk1 (P14635 whole entry partner, species assumed): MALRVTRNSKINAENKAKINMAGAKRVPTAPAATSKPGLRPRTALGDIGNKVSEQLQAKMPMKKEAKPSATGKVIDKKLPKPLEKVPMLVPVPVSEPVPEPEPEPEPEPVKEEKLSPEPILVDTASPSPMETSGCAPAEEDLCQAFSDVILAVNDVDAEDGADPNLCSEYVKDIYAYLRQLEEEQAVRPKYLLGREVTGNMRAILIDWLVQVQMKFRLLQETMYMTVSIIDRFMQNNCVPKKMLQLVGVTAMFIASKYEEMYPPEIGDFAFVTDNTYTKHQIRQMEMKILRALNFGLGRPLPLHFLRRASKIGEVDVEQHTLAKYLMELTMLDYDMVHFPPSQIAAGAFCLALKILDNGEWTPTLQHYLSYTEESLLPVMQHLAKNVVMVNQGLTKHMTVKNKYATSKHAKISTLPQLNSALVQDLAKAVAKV
Sequence of Cdk4 (P11802 whole entry, species assumed): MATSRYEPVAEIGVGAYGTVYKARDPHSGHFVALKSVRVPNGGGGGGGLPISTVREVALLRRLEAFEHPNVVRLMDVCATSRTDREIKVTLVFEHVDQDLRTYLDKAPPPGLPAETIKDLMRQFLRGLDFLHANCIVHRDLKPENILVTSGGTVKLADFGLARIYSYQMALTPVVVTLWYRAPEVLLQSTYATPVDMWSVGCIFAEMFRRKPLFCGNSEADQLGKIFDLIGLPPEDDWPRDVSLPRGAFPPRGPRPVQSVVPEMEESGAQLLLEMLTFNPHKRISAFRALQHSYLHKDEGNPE
Sequence of Cdk4 (P24385 whole entry partner, species assumed): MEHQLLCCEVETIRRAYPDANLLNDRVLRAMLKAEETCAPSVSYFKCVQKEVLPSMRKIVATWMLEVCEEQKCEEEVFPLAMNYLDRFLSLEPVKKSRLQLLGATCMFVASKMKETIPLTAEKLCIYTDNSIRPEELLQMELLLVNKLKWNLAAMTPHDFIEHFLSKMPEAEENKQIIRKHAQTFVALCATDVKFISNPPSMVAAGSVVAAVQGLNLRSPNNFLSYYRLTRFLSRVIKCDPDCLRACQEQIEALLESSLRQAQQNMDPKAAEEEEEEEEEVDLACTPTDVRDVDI
Sequence of Cdk3 (Q00526 whole entry, species assumed): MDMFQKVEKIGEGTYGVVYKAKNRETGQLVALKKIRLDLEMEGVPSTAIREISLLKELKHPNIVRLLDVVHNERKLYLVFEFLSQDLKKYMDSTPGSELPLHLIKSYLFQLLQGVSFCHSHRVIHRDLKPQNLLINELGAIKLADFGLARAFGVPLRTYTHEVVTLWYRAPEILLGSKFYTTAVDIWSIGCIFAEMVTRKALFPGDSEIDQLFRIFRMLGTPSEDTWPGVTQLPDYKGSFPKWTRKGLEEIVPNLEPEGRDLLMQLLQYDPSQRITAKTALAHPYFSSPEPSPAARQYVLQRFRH
Sequence of Cdk3 (P24864 whole entry partner, species assumed): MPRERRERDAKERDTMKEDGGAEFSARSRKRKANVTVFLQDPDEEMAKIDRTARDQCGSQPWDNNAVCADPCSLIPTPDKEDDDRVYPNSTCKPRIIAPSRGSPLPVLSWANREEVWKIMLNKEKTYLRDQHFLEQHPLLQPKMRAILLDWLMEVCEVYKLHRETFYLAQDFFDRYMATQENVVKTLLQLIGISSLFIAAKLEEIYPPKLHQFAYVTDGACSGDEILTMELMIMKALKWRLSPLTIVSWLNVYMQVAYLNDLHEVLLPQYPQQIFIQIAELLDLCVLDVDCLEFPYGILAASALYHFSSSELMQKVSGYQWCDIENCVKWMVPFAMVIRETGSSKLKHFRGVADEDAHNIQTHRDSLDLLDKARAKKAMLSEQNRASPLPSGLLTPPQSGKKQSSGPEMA

CC(C)N1CCN(C(=O)COc2ccc(-c3n[nH]c4c3C(=O)c3c(NC(=O)NN5CCOCC5)cccc3-4)cc2)CC1 [Compound A37]
IC50 (1A9): 13.3 nM | IC50 (Cdk4): < 50 nM | RR (relative resistance) A129 cp80 vs A129 (A129 cp80): 0.7 | IC50 (A129 cp80): 4 nM | IC50 (Cdk2): < 50 nM | IC50 (Fes; [2]): < 100 nM | IC50 [1]: < 50 nM | IC50 (panel of Tyr kinases): ~37 nM and 35.5 nM | IC50 (Cdk1): < 50 nM | IC50 (A129): 5.7 nM | IC50 (Cdk3): < 5 nM

COCCN1CCN(Cc2ccc(-c3n[nH]c4c3C(=O)c3c(NC(=O)NN5CCOCC5)cccc3-4)cc2)CC1 [Compound B16, N-[3-(4-{[4-(2-methoxyethyl)piperazinyl]methyl}phenyl)-4-oxoindeno[2,3-d]pyrazol-5-yl](morpholin-4-ylamino)carboxamide dihydrochloride]
IC50 (1A9): 10.7 nM | IC50 (Cdk4): > 100 nM | RR (relative resistance) A129 cp80 vs A129 (A129 cp80): 0.5 | IC50 (A129 cp80): 4.7 nM | IC50 (Cdk2): < 5 nM | IC50 (Fes; kinase panel, read-out: Fes IC50): < 100 nM | IC50 (Fes; [2]): < 100 nM | IC50 [1]: < 100 nM | IC50 (panel of Tyr kinases): ~55 nM | IC50 (Cdk1): < 5 nM | IC50 (A129): 8.7 nM | IC50 (Cdk3): < 5 nM
